What was measured:
Assay type in all cases: physicochemical
[1] = Stability of crystalline Form A compared with amorphous Compound 1; details: crystalline Form A vs amorphous; traditional purification process
[2] = Hygroscopicity of Form A
[3] = UV-Vis pH-dependent colour change (bathochromic shift) of MSK-777; details: colour change red to blue, basic conditions; read-out: approximate averaged pKa values of the acidic phenol protons (inflection point of colour change)
Source text: These absorptions indicate a benzoisochromanequinones (BIQ) chromophore. The broad adsorption in the visible region (around 527 nm) is responsible for the intense red color of the substance.
Under basic conditions (pH>8) a bathochromic shift of Vis-absorption (ca. 40 nm) is observed, indicating ionization of slightly acidic phenolic protons. This pH dependent indicatory behavior is characteristic to the BIQ chromophore and is visually observed as the solution turns from red to blue.

[4] = Chemical degradation under acidic conditions observed by HPLC; details: acidic conditions (pH<4), ambient temperature
Source text: The degradation is caused by hydrolysis of the glycosidic bond, forming Granaticin A, the biosynthetic precursor of MSK-777. Consistently, in a time dependent HPLC experiment a simultaneous increase of Granaticin A chromatographic areas and decrease of Granaticin B areas is observed. The hydrolysis experiment and the almost identical UV spectra indicate that MSK-777 (Granaticin B) and Granatioin A share the same core structure and chromophore. Therefore the structural difference between Granaticin A and MSK-777 arises from a hydrolysable part (sugar moiety) of the latter compound.

stability of solid form [1] | hygroscopicity [2] | pKa [3] | degradation (hydrolysis of the glycosidic bond forming Granaticin A) [4] | SMILES
less stable and prone to degradation | – | – | – | CC1OC2CC(=O)OC2C2=C1C(=O)c1c(O)c3c(c(O)c1C2=O)C1CC(OC2CCC(O)C(C)O2)C3(O)C(C)O1 (centres unmarked) [Amorphous Compound 1, granaticin B]
more stable than amorphous Compound 1 | substantially non-hygroscopic | – | – | CC1OC2CC(=O)OC2C2=C1C(=O)c1c(O)c3c(c(O)c1C2=O)C1CC(OC2CCC(O)C(C)O2)C3(O)C(C)O1 (centres unmarked) [Form A of Compound 1, granaticin B]
– | – | ~8.5 | slow degradation | CC1OC2CC(=O)OC2C2=C1C(=O)c1c(O)c3c(c(O)c1C2=O)C1CC(OC2CCC(O)C(C)O2)C3(O)C(C)O1 (centres unmarked) [MSK-777, granaticin B]
